Drawing on patent publication US20240308992A1 (Biopolar Youtang(Guangdong) Pharmaceutical Co., Ltd., priority 2021, published 2024), this text covers IC50 for 25 compounds.

Counter-ions that a name gives are not always drawn. Bounds are passed on as bounds.

In this assay the target is T1, Drak2 (Homo sapiens, UniProt O94768).
T1 sequence (O94768 1-372): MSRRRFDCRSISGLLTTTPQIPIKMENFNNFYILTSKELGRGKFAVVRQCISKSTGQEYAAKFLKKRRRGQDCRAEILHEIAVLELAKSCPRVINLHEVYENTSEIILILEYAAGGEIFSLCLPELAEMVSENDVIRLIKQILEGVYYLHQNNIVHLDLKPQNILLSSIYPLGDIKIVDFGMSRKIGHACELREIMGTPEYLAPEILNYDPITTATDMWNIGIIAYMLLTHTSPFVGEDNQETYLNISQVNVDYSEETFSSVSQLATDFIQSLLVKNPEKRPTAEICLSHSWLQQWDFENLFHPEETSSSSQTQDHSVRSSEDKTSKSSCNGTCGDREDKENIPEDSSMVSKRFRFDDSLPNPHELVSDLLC
Briefly: Drak2 activity test, ADP-Glo kinase assay (Promega). It counts as biochemical. To be noted: inhibition of Drak2 kinase activity, 2 h room temperature, activity range classes, read-out: IC50_Drak2. For orientation: In ADP-Glo the light output rises with the ADP produced.
For the compound `CCCCC(=O)Nc1csc(-c2cncc(-c3ccc(C(=O)NS(=O)(=O)N(C)C)c(OC)c3)n2)c1` [Example B7, 2-methoxy-4-(6-(4-pentanamidothiophen-2-yl)pyrazin-2-yl)-N-(N,N-dimethylsulfamoyl)benzamide], the IC50 lay in the range of 101 to 1000 nM.
Consider `COc1cc(-c2cncc(-c3cc(NC(=O)CC4CCC4)cs3)n2)ccc1C(=O)N(C)C1CC2(C1)CN(C1CC1)C2` [Example B97, 4-(6-(4-(2-cyclobutylacetamido)thiophen-2-yl)pyrazin-2-yl)-N-(2-cyclopropyl-2-azaspiro[3.3]heptan-6-yl)-2-methoxy-N-methylbenzamide], for which the IC50 was in the range of 11 to 100 nM.
`CCCCC(=O)Nc1csc(-c2cncc(-c3ccc(C(=O)Nc4cn(C)c(C(=O)OC)n4)c(OC)c3)n2)c1` [Example B22, methyl 4-(2-methoxy-4-(6-(4-pentanamidothiophen-2-yl)pyrazin-2-yl)benzamido)-1-methyl-1H-imidazole-2-carboxylate]: the IC50 is 101 to 1000 nM.
Next, `CCCCC(=O)Nc1csc(-c2cncc(-c3ccc(C(=O)N4CCC(OC)CC4)c(OC)c3)n2)c1` [Example B53, N-(5-(6-(3-methoxy-4-(4-methoxypiperidine-1-carbonyl)phenyl)pyrazin-2-yl)thiophen-3-yl)pentanamide]: 11 to 100 nM; `CN1CCC(Cn2cc3ccc(-c4cncc(-c5cc(NC(=O)CC6CCC6)cs5)n4)cc3n2)CC1` [Example A50, 2-cyclobutyl-N-(5-(6-(2-((1-methylpiperidin-4-yl)methyl)-2H-indazol-6-yl)pyrazin-2-yl)thiophen-3-yl)acetamide]: 11 to 100 nM.
Next, `COc1cc(-c2cncc(-c3cc(NC(=O)CC4CCC4)cs3)n2)ccc1C(=O)N1CCC(OC)CC1` [Example B49, 2-cyclobutyl-N-(5-(6-(3-methoxy-4-(4-methoxypiperidine-1-carbonyl)phenyl)pyrazin-2-yl)thiophen-3-yl)acetamide]: 11 to 100 nM.
As to `CCCCCCCCCC(=O)Nc1csc(-c2cncc(-c3ccc(C(=O)Nc4nnn[nH]4)c(OC)c3)n2)c1` [Example B20, 2-methoxy-4-(6-(4-decanamidothiophen-2-yl)pyrazin-2-yl)-N-(1H-tetrazol-5-yl)benzamide], the IC50 is more than 10000 nM.
Next, `COc1cc(-c2cncc(-c3cc(NC(=O)CC4CCC4)cs3)n2)ccc1-c1ncc2c(n1)CCN(Cc1ccccc1)C2` [Example 208, N-(5-(6-(4-(6-benzyl-5,6,7,8-tetrahydropyrido [4,3-d]pyrimidin-2-yl)-3-methoxyphenyl)pyrazin-2-yl)thiophen-3-yl)-2-cyclobutyl Acetamide]: 101 to 1000 nM; `COc1cc(-c2cncc(-c3cc(NC(=O)NC4CCC4)cs3)n2)ccc1C(=O)N(C)C1CCN(C)CC1` [Example F1, 4-(6-(4-(3-cyclobutylurea)thiophen-2-yl)pyrazin-2-yl)-2-methoxy-N-methyl-N-(1-methylpiperidin-4-yl) benzamide]: 11 to 100 nM; `COc1cc(-c2cncc(-c3cc(NC(C)=O)cs3)n2)ccc1C(=O)Nc1nnn[nH]1` [Example B10, 2-methoxy-4-(6-(4-acetamidothiophen-2-yl)pyrazin-2-yl)-N-(1H-tetrazol-5-yl)benzamide]: 101 to 1000 nM.
On to `COc1ccc(-c2cncc(-c3cc(N)cs3)n2)cc1OC` [Example A2, 5-(6-(3,4-dimethoxyphenyl)pyrazin-2-yl)thiophen-3-amine hydrochloride], for which the IC50 was 1000 to 10000 nM.
Next, `COc1cc(-c2cncc(-c3cc(NC(=O)CC4CCC4)cs3)n2)ccc1OC(O)CN1CCOCC1=O` (stereo not shown) [Example 171]: 11 to 100 nM.
Next, `COc1ccc(-c2cncc(-c3cc(NC(=O)C4CCC4)cs3)c2C(N)=O)cc1OC` [Example C1, 3-(4-(cyclobutanecarboxamido)thiophen-2-yl)-5-(3,4-dimethoxyphenyl)isonicotinamide]: more than 10000 nM; `COc1cc(-c2cncc(-c3cc(NC(=O)CC4CCCC4)cs3)n2)ccc1CN1CCOCC1` [Example B36, 2-cyclopentyl-N-(5-(6-(3-methoxy-4-(morpholinomethyl)phenyl)pyrazin-2-yl)thiophen-3-yl)acetamide]: 101 to 1000 nM.
For `COc1ccc(-c2cncc(-c3cc(NC(=O)C4CCC4)cs3)c2C#N)cc1OC` [Example C2, N-(5-(4-cyano-5-(3,4-dimethoxyphenyl)pyridin-3-yl)thiophen-3-yl)cyclobutanecarboxamide] the value was 1000 to 10000 nM.
On to `COc1cc(-c2cncc(-c3cc(NC(=O)CC4CC(C(C)=O)C4)cs3)n2)ccc1C(=O)N(C)C1CCN(C)CC1` (stereo not shown) [Example B91, 4-(6-(4-(2-(3-acetylcyclobutyl)acetamido)thiophen-2-yl)pyrazin-2-yl)-2-methoxy-N-methyl-N-(1-methylpiperidin-4-yl)benzamide], for which the IC50 is 101 to 1000 nM.
Next, `CCCCC(=O)Nc1csc(-c2cncc(-c3ccc(C(=O)OC)s3)n2)c1` [Example 222, methyl 5-(6-(4-pentamidothiophen-2-yl)pyrazin-2-yl) thiophen-2-carboxylate]: 101 to 1000 nM; `CCCCC(=O)Nc1csc(-c2cncc(-c3cccc(OC)c3)n2)c1` [Example 195, N-{5-[6-(3-methoxyphenyl)pyrazin-2-yl]thiophen-3-yl} pentanamide]: 11 to 100 nM.
Turning to `CCCCC(=O)Nc1csc(-c2cncc(-c3ccc(C4=NOC(=O)C4)c(OC)c3)n2)c1` [Example A37, N-(5-(6-(3-methoxy-4-(5-oxo-4,5-dihydroisoxazol-3-yl)phenyl)pyrazin-2-yl)thiophen-3-yl)pentanamide], the IC50 lay within 101 to 1000 nM.
Next, `CCCCC(=O)Nc1csc(-c2cncc(-c3ccc(C(=O)O)c(OC)c3)n2)c1` [Example B2, 2-methoxy-4-(6-(4-pentanamidothiophen-2-yl)pyrazin-2-yl)benzoic acid]: 11 to 100 nM; `COc1ccc(-c2cncc(-c3cc(NC(=O)c4ccccc4)cs3)n2)cc1OC` [Example A10, N-(5-(6-(3,4-dimethoxyphenyl)pyrazin-2-yl)thiophen-3-yl)benzamide]: 1000 to 10000 nM; `COc1cc(-c2cncc(-c3cc(NC(=O)CC4CC(O)C4)cs3)n2)ccc1C(=O)N(C)C1CC2(C1)CN(C)C2` (stereo not shown) [Example 205, 4-(6-(4-(2-(3-hydroxycyclobutyl)acetylamino)thiophen-2-yl)pyrazin-2-yl)-2-methoxy-N-methyl-N-(2-methyl-2-azaspiro [3.3]heptane-6-yl) benzamide]: 11 to 100 nM.
For `Cc1nn(C)c2cc(-c3cncc(-c4cc(NC(=O)CC5CCC5)cs4)n3)ccc12` [Example A51, 2-cyclobutyl-N-(5-(6-(1,3-dimethyl-1H-indazol-6-yl)pyrazin-2-yl)thiophen-3-yl)acetamide] the value was 101 to 1000 nM; for `CCC(=O)Nc1csc(-c2cncc(-c3ccc(C(=O)Nc4nnn[nH]4)c(OC)c3)n2)c1` [Example B11, 2-methoxy-4-(6-(4-propionamidothiophen-2-yl)pyrazin-2-yl)-N-(1H-tetrazol-5-yl)benzamide], 101 to 1000 nM; for `CCCC(=O)Nc1csc(-c2cncc(-c3ccc(C(=O)Nc4nnn[nH]4)c(OC)c3)n2)c1` [Example B9, 2-methoxy-4-(6-(4-butyramidothiophen-2-yl)pyrazin-2-yl)-N-(1H-tetrazol-5-yl)benzamide], 101 to 1000 nM.
